Article PMC8770581 (ChemMedChem, 2021)

Tests used:
α-syn fibrils [1] = molecular target: T1, α-syn fibrils (Homo sapiens, UniProt P37840); assay: α-Synuclein fibril/ligand saturation binding assay; conditions: for Selectivity α-syn v/s Aβ: from Kd Aβ and Kd α-syn
Aβ fibrils = Aβ fibrils (Homo sapiens, UniProt P05067); assay: Fluorescent properties of ligand-Aβ fibril complex; type: physicochemical
Aβ (1–40) fibrils = Aβ (1–40) fibrils (Homo sapiens, UniProt P05067); assay: Aβ fibril/ligand saturation binding assay
[2] = Absorption/emission maxima and fluorescence quantum yield of free ligand in PBS; type: physicochemical; conditions: for Absmax / Emmax: free ligand in PBS
α-syn fibrils [3] = molecular target: T1, α-syn fibrils; assay: Fluorescent properties of ligand-α-syn fibril complex; type: physicochemical
[4] = Kd α-syn, Table 1, synthetic α-syn fibrils 2.5 μM, 1 hour, mean ± SD (n = 3)
[5] = Kd α-syn, Table 3 and text, α-syn fibrils, saturation binding, mean ± SD (n = 3)

Chain of Aβ fibrils (P05067 672-711): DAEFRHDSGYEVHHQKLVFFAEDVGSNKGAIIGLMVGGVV
Chain of Aβ (1–40) fibrils (P05067 672-711): as above

SMILES | Kd (α-syn fibrils [1]; [4]) [nM] | Kd (α-syn fibrils [1]; [5]) [nM] | Selectivity α-syn v/s Aβ (α-syn fibrils [1]) [x] | Absmax Ligand + Aβ (Aβ fibrils) | Emmax Ligand + Aβ (Aβ fibrils) | Fluorescence quantum yield Ligand + Aβ (Aβ fibrils) | Kd (Aβ (1–40) fibrils) [nM] | Fluorescence quantum yield Free ligand [2] | Absmax [2] | Emmax [2] | Absmax Ligand + α-syn (α-syn fibrils [3]) | Emmax Ligand + α-syn (α-syn fibrils [3]) | Fluorescence quantum yield Ligand + α-syn (α-syn fibrils [3]) | Kd (α-syn fibrils [1]; Kd α-syn (reported as no binding), α-syn fibrils, saturation binding) [nM]
CN(C)c1ccc(/C=C/C=C2\CCc3ccccc3C2=O)cc1 [compound 24, (E)-2-((E)-3-(4-(Dimethylamino)phenyl)allylidene)-3,4-dihydronaphthalen-1(2H)-one] | 97.6 ± 5.7 | 97.6 ± 5.7 | 1.7 | 435 | 585 | 0.1377 | 165 ± 7.1 | 0.0063 | 397 | 565 | 452 | 582 | 0.0668 | 
CN(C)c1ccc(/C=C/C=C2\Cc3ccccc3C2=O)cc1 [compound 9, (E)-2-((E)-3-(4-(Dimethylamino)phenyl)allylidene)-2,3-dihydro-1H-inden-1-one] | 38.4 ± 1.3 | 38.4 ± 1.3 | 4.1 | 460 | 609 | 0.1465 | 157 ± 5 | 0.0059 | 450 | 589 | 462 | 610 | 0.0805 | 
COc1cc(/C=C/C=C2C(=O)c3ccccc3C2=O)ccc1O [compound 20, (E)-2-(3-(4-Hydroxy-3-methoxyphenyl)allylidene)-1H-indene-1,3(2H)-dione] | 44.5 ± 6.1 | 44.5 ± 6.1 | 3.5 | 438 | 598 | 0.1419 | 154 ± 11.8 | 0.0061 | 402 | 572 | 440 | 603 | 0.0482 | 
O=C1/C(=C\c2ccc(-c3ccc(CO)cc3)s2)Cc2ccccc21 [compound 37, (Z)-2-((5-(4-(Hydroxymethyl)phenyl)thiophen-2-yl)methylene)-2,3-dihydro-1H-inden-1-one] |  |  |  | 446 | 556 | 0.1074 | 393 ± 64.4 | 0.0063 | 431 | 524 |  |  |  | 
COc1cc(-c2ccc(/C=C/C=C3\Cc4ccccc4C3=O)cc2)ccc1O [compound 29, (E)-2-((E)-3-(4'-Hydroxy-3'-methoxy-[1,1'-biphenyl]-4-yl)allylidene)-2,3-dihydro-1H-inden-1-one] | 66.7 ± 2 |  | 0.8 | 424 | 574 | 0.1543 | 52.5 ± 3.1 | 0.0052 | 397 | 551 | 428 | 583 | 0.0766 | 
COc1cc(/C=C/C=C2\CCc3ccccc3C2=O)ccc1O [compound 23, (E)-2-((E)-3-(4-Hydroxy-3-methoxyphenyl)allylidene)-3,4-dihydronaphthalen-1(2H)-one] | 85.1 ± 13.4 | 85.1 ± 13.4 | 1.7 | 454 | 584 | 0.1890 | 144 ± 13 | 0.0051 | 401 | 549 | 447 | 587 | 0.0763 | 
COc1cc(-c2ccc(/C=C3/Cc4ccccc4C3=O)s2)ccc1O [compound 39, (Z)-2-((5-(4-Hydroxy-3-methoxyphenyl)thiophen-2-yl)methylene)-2,3-dihydro-1H-inden-1-one] | 93.1 ± 13.8 | 93.1 ± 13.8 | 2.8 | 448 | 586 | 0.1377 | 257 ± 20.3 | 0.0031 | 403 | 575 | 439 | 589 | 0.0435 | 
CN(C)c1ncc(-c2ccc(/C=C3/CCc4ccccc4C3=O)s2)cn1 [compound 51, (Z)-2-((5-(2-(Dimethylamino)pyrimidin-5-yl)thiophen-2-yl)methylene)-3,4-dihydronaphthalen-1(2H)-one] | 107 ± 7.5 |  |  |  |  |  |  |  | 442 | 613 |  |  |  | 
CN(C)c1ccc(-c2ccc(/C=C3/Cc4ccccc4C3=O)s2)cc1 [compound 40, (Z)-2-((5-(4-(Dimethylamino)phenyl)thiophen-2-yl)methylene)-2,3-dihydro-1H-inden-1-one] | 160 ± 7.1 |  |  |  |  |  |  |  | 413 | 597 |  |  |  | 
Cc1ccc2occ(C=C3C(=O)c4ccccc4C3=O)c(=O)c2c1 [compound 53, 2-((6-Methyl-4-oxo-4H-chromen-3-yl)methylene)-1H-indene-1,3(2H)-dione] | > 2000 |  |  |  |  |  |  |  | 428 | 471 |  |  |  | 
O=C(O)c1ccc(-c2ccc(/C=C/C=C3C(=O)c4ccccc4C3=O)cc2)s1 [compound 35, (E)-5-(4-(3-(1,3-Dioxo-1,3-dihydro-2H-inden-2-ylidene)prop-1-en-1-yl)phenyl)thiophene-2-carboxylic acid] | 74.2 ± 14.3 | 74.2 ± 14.3 | 4.5 | 437 | 595 | 0.2058 | 337 ± 11.7 | 0.0097 | 414 | 556 | 425 | 601 | 0.0878 | 
O=C1/C(=C/C=C/c2ccc([N+](=O)[O-])cc2)Cc2ccc(O)cc21 [compound 13, (E)-6-Hydroxy-2-((E)-3-(4-nitrophenyl)allylidene)-2,3-dihydro-1H-inden-1-one] | 726 ± 23.6 |  |  |  |  |  |  |  | 356 | 443 |  |  |  | 
O=C1C(=Cc2cc(-c3ccc(Br)cc3)no2)C(=O)c2ccccc21 [compound 56, 2-((3-(4-Bromophenyl)isoxazol-5-yl)methylene)-1H-indene-1,3(2H)-dione] | > 2000 |  |  |  |  |  |  |  | 321 | 409 |  |  |  | ≥ 2000
O=C1C(=Cc2cc3ccccc3[nH]2)C(=O)c2ccccc21 [compound 55, 2-((1H-Indol-2-yl)methylene)-1H-indene-1,3(2H)-dione] | 1180 ± 88 |  |  |  |  |  |  |  | 384 | 519 |  |  |  | 
COc1ncc(-c2ccc(/C=C3/Cc4ccccc4C3=O)s2)c(OC)n1 [compound 42, (Z)-2-((5-(2,4-Dimethoxypyrimidin-5-yl)thiophen-2-yl)methylene)-2,3-dihydro-1H-inden-1-one] | 92.9 ± 6.3 | 92.9 ± 6.3 | 2.7 | 478 | 581 | 0.1130 | 250 ± 37.1 | 0.0050 | 387 | 547 | 465 | 572 | 0.0596 | 
